Test system: PC-3 tumors
Experiment: Growth of PC-3 tumors in male nude mice
Format: in vivo
Conditions: PC-3 xenografts
Description: FIG. 20: Effect of ATRA and VN/50A-1 on PC 3 Tumor Volumes in Male Nude Mice
The effects of VN/50A-1 on tumor growth was determined in mouse xenografts and compared to ATRA as the reference treatment (FIG. 20). Mice were grouped 35 days after cell inoculation when measurable tumor volume was approximately 500 mm^3. Total tumor volume in the control mice increased 5.4-fold over 7 weeks and tumor volume in the mice treated with ATRA increased by 3.2-fold (41% reduction compared with control). In the mice treated with VN/50A-1, tumor volume increased by 3.5-fold, which was 38% reduction versus control mice, which correlated well with accumulation of ATRA in plasma and in tumors. […] VN/50A-1 is completely eliminated from plasma within 3 hour of administration to mice (see FIG. 18). The inventive compounds with longer half-lives will have favorable bioavailability and are expected to be more efficacious.

For `CC(C=CC1=C(C)C(n2ccnc2)CCC1(C)C)=CC=CC(C)=CC(=O)n1ccnc1` (stereo not drawn) [VN/50A-1], the “tumor weights versus control mice” value was “significantly (P<0.05) lower”, the “reduction of tumor volume compared with control” value (over 7 weeks) was 38% and the “increase of total tumor volume” value (over 7 weeks, control 5.4-fold) was 3.5 fold.
